From patent US20140343095A1, “Methods of Diagnosing and Treating Multiple Sclerosis” (The Brigham and Women's Hospital, Inc., priority 2009, published 2014)
Entries after “also recorded” stand apart in the source; their conditions may differ.

Columns and labels:
PARP-1 [1] = biological target: T1, PARP-1 (Homo sapiens, UniProt P09874); assay: PARP-1 enzymatic activity in human PBMCs (PARP HT Universal Colorimetric Kit); type: cell-based; parameters: endogenous in cells; host or cells: human PBMCs / monocytes / dendritic cells / T and B cells from healthy controls and MS patients; details: healthy controls, 1 ug/ml 15-HC
Experimental: PARP-1 enzymatic activity (10A) and TNFalpha and CCL2 (10B) of PBMCs incubated with 15-HC alone, or in combination with AIQ, blocking antibodies to TLR2 or IC control.
To investigate whether the TLR2/PARP-1 axis is functional in human we activated PBMCs from healthy controls with 15-HC, in the presence or not of PARP-1 or TLR2 inhibitors.
Target sequence in this assay (P09874 whole entry): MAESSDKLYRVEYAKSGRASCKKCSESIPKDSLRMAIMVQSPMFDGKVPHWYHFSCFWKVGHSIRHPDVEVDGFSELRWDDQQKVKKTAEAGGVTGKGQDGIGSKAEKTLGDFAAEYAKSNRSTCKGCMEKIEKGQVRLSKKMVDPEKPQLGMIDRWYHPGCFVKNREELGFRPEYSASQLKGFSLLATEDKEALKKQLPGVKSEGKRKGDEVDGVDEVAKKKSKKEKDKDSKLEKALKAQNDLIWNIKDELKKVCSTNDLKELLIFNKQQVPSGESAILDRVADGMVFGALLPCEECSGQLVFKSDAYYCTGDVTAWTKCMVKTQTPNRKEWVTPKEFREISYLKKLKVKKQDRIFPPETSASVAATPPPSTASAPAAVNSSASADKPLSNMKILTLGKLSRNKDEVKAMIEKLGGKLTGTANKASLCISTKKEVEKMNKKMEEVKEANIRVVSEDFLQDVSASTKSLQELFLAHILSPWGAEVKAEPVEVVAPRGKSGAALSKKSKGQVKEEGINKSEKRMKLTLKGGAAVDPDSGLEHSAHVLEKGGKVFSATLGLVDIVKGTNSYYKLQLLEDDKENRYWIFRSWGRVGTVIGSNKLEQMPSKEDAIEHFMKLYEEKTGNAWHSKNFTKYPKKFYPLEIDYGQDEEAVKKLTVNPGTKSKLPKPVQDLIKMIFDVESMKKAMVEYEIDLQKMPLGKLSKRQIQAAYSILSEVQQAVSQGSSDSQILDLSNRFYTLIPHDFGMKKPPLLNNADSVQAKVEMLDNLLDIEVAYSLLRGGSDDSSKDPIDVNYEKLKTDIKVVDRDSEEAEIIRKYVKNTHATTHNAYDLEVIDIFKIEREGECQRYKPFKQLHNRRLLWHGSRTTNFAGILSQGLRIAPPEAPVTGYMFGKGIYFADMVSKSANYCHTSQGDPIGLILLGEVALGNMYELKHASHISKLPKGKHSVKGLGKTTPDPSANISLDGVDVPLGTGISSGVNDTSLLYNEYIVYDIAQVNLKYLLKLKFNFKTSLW

PARP-1 [2] = biological target: T2, PARP-1 (Mus musculus, UniProt P11103); assay: Cellular PARP-1 activity in microglia, macrophages or astrocytes; type: cell-based; parameters: host or cells: C8B4 microglia, C8-D1A astrocytes, Raw 264.7 macrophages
Experimental: 5A, a bar graph showing the time course of microglial PARP-1 activation by 15-oxysterols or 7-KC. PARP-1 activity is shown as Mean±SEM. […] (Mean±SEM) 5C, a bar graph showing activation of microglial PARP-1 by 15-HC in the presence of kinase inhibitors (Mean±SEM).
6A, a set of three bar graphs showing PARP-1 activity in microglia, macrophages or astrocytes activated with 15-HC in the presence of blocking antibodies to TLR2 or TLR4, or isotype controls (Mean±SEM).
PARP-1 activity was measured using PARP HT Universal Colorimetric Kit (Trevigen, MD, USA), following manufacturer instructions.
Cells were cultured with DMEM supplemented with 10% fetal bovine serum, 2 mM L-glutamine, 25 mM HEPES, and 1 mM sodium pyruvate. Cells in logarithmic growth were treated with 1 μg/ml of 15-HC for 1, 5, 15, and 30 minutes in serum-free medium. Blocking antibodies (Ebioscience, San Diego, Calif., USA) were added in some experiments at a final concentration of 10 ug/ml.

PARP-1 [3] = biological target: T2, PARP-1
Experimental: Microglia and astrocyte activation have been linked to the progressive phase of experimental SPMS (Basso et al., J Clin Invest 118, 1532-1543 (2008)), thus the activation of PARP-1 was analyzed in the CNS of NOD mice during the progressive phase of EAE.
Spinal cord tissue samples from MOG-immunized NOD mice with or without AIQ treatment were collected at day 55, fixed in 4% paraformaldehyde, cryoprotected in 20% sucrose, and frozen in OCT. Spinal cord frozen sections were cut at 10 μm and processed for histological analysis, immunohistochemistry, or immunofluorescence. […] For image analysis, 3 or 4 lumbar spinal cord sections were selected according to regional landmarks from 4 different animals per group. Image analysis was performed using the software ImageJ (NIH). For quantification, level of labeling “threshold” was used as a cut-off to determine positive or negative staining Immunofluorescence was performed using anti-Iba-1 (Wako, VA, USA), anti-GFAP (BD Bioscience, MA, USA) and anti PAR (Trevigen, MD, USA)

[4] = system: NOD mice (experimental SPMS); assay: NOD experimental model of SPMS (MOG35-55 EAE), clinical score and spinal cord histology; type: in vivo, mouse
Experimental: 2A, a line graph showing the results of AIQ treatment when experimental SPMS was induced in ten-week old NOD mice by subcutaneous immunization with […] of MOG35-55 in CFA and Pertussis toxin (150 ng per mouse) given at the time of immunization and 48 hours later. AIQ (3 mg/Kg body weight) was given daily beginning on day 0, n=10 animals per group. A control group was treated with PBS. 2B, a pair of line graphs showing the results of regression analysis of EAE progression (top panel—acute phase, bottom panel—chronic phase). 2C, four images from histopathological analysis of EAE in NOD mice.
This experimental model of SPMS was used to analyze the levels of 15-oxysterols at peak of the acute EAE attack (day 18) and during the progressive phase of EAE (day 55).
150 ng/mouse of pertussis toxin (Sigma) were administered intraperitoneally on days 0 and 2. Clinical signs of EAE were assessed according to the following score: 0, no signs of disease; 1, loss of tone in the tail; 2, hind limb paresis; 3, hind limb paralysis; 4, tetraplegia; 5, moribund.
Image analysis was performed using the software ImageJ (NIH).

PARP-1 [5] = biological target: T1, PARP-1; assay: FACS-based detection of PARP-1 activity (PAR staining) in human monocytes / PBMCs; type: cell-based; parameters: endogenous in cells; host or cells: human PBMCs / monocytes / dendritic cells / T and B cells from healthy controls and MS patients; details: human monocytes activated by 15-HC
Experimental: FIGS. 11A-B are show the results of FACS-based detection of PARP-1 activity. 11A. a set of five histograms showing PAR staining (as detected by FACS) of PBMCs incubated with 15-HC alone, or in combination with AIQ, blocking antibodies to TLR2 (TLR2 BL), or IC control (TLR2 IC). 11B, a line graph showing the correlation of PAR staining as detected by FACS with PARP-1 enzymatic activity detected on PBMCs activated with different concentration of 15-HC.
14A is a set of fifteen histograms showing PAR staining of PBMCs taken from HC (left column), RRMS (center column) or SPMS (right column) patients and unstimulated (top row) or activated with 15-HC alone (second row), or in combination with AIQ (third row), blocking antibodies to TLR2 (fourth row) or IC control (bottom row). 14B is a bar graph showing the mean fluorescence intensity (MFI)±SD of 5 samples/group from the histograms in 14A.
15A is a set of 24 histograms showing PAR staining of PBMCs taken from HC (left column), RRMS (center column) or SPMS (right column) patients and unstimulated (top row) or activated with pgLPS (second row), polyIC (third row), ecLPS (fourth row), flagellin (row 5), imiquimod (row 6), ssRNA (row 7) or CpG (row 8). 15B is a bar graph showing the mean fluorescence intensity (MFI)±SD of 5 samples/group from the histograms in […].
A new FACS-based method was developed to detect PARP-1 activation based on the intracellular detection of the PARP-1 product PAR with specific antibodies. Briefly, the cells were incubated with antibodies to CD16/32 to block unspecific antibody binding, and then stained for surface markers. After washing, the cells were permeabilized with Fix/Perm (BD), and then stained with rabbit anti-PAR antibodies (or control rabbit IgG) for 30′ at 4° C., followed by anti-rabbit PE for 30′ at room temperature. The samples were then analyzed by FACS.
Target sequence in this assay (P09874 whole entry): as above

[6] = system: microglia, macrophages or astrocytes; assay: TNF-α, CCL-2 and NO secretion by microglia, macrophages or astrocytes; type: cell-based, mouse; details: co-incubation with 15-HC
Experimental: FIGS. 4A-D show the results of activation of microglia, macrophages and astrocytes by 15-HC. 4A, a bar graph showing PARP-1 activity in a cell-free system where recombinant PARP-1 was incubated with DNA which as been pretreated with 15-HC or 7-KC. Non-pretreated DNA was used as a negative control and ssb-DNA as a positive control. Data is shown as Mean±SEM. 4B, a pair of bar graphs showing PARP-1 activity measured in microglia, macrophages or astrocytes incubated with 15-HC or 7-KC. The data is shown as the fold of change between vehicle and lipid-treated cells (Mean±SEM). 4C, a pair of bar graphs showing percent inhibition of PARP-1 activity in microglia, macrophages or astrocytes activated with 15-HC or 7-KC […] in the presence of 5-AIQ. 4D, a table showing levels of TNF-α, CCL-2 and NO secretion by 15-HC or 7-KC treated microglia, macrophages or astrocytes (Mean±SEM).
The effect of 15-HC on the activity of cellular PARP-1 was then investigated. […] Thus, 15-HC activates microglia, macrophages and astrocytes through a PARP-1-dependent mechanism.

splenocytes = assay: Adaptive encephalitogenic recall response of splenocytes from treated mice (proliferation, cytokines); type: in vivo, mouse; details: AIQ vs control-treated mice
Experimental: FIG. 7 is a set of eight bar graphs showing that the adaptive encephalitogenic immune response is not affected by the inhibition of PARP-1. Splenocytes prepared from control or AIQ-treated mice were activated in vitro with MOG35-55 (right column) or antibodies to CD3 (left column) and the cytokines levels were tested on the supernatant at 48 hours. Top row, IFN-gamma Second row, IL-17. Third row, IL-10. Bottom row, TGF-beta.
Splenocytes and lymph node cells were cultured in X-VIVO medium and plated at 5×10^5 cells per well in the presence of MOG35-55 for 72 hours. During the last 16 hours, cells were pulsed with 1 μCi of [^3H]-thymidine (PerkinElmer) followed by harvesting on glass fiber filters and analysis of incorporated [^3H]-thymidine in a beta-counter (1450 Microbeta, Trilux; PerkinElmer). Supernatants were collect after 48 h of culture for cytokine measurements by ELISA.

PARP-1 [7] = biological target: T1, PARP-1; details: Diestel et al. 2003; cited from earlier work
Target sequence in this assay (P09874 whole entry, species assumed): as the sequence (P09874 whole entry) above

[8] = NOD mice, AIQ 3 mg/Kg body weight daily from day 0, vs PBS
[9] = spinal cord sections, day 55, progressive phase of NOD EAE

T2 sequence (P11103 whole entry): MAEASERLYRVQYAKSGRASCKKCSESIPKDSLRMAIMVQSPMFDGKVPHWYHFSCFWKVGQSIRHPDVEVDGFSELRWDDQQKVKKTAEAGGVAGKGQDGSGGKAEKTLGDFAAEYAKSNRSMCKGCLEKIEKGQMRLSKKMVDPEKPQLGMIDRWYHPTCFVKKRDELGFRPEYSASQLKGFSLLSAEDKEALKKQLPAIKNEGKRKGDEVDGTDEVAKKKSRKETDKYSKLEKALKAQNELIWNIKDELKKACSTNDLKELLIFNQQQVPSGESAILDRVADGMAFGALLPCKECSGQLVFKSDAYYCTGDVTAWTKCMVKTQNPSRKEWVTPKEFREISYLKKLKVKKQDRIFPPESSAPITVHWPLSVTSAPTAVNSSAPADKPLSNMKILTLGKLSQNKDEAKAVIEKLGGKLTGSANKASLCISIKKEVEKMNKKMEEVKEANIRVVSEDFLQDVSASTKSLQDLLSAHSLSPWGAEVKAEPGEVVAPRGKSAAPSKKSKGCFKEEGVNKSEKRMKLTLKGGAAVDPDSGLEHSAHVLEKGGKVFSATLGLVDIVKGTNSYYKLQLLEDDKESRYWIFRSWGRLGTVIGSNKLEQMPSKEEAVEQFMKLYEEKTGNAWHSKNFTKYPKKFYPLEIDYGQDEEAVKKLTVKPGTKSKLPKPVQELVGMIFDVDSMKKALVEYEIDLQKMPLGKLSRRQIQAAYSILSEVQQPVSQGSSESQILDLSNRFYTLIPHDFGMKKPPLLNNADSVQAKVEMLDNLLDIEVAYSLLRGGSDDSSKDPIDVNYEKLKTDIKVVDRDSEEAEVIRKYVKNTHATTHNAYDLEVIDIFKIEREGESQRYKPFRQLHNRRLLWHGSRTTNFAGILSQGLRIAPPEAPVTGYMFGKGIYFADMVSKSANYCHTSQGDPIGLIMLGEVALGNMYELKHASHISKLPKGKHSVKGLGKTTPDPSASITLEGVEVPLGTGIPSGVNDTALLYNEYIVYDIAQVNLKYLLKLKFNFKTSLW

Row | inhibition of 15-HC-induced PARP-1 enzymatic activity in human PBMCs (PARP-1 [1]) | inhibition of PARP-1 activation by 15-HC (PARP-1 [2]; microglia, macrophages or astrocytes activated with 15-HC) | PARP-1 activity in CNS CD11b+ cells (PARP-1 [3]; cells isolated at day 55 from AIQ or control-treated mice) | PARP-1 activation in CNS (PAR staining) (PARP-1 [3]; progressive phase of NOD EAE, data not shown) | blockade of 15-HC-induced PAR staining (FACS) (PARP-1 [5]) | SMILES | clinical signs of progressive EAE [4, 8] | effect on the acute phase of EAE [4, 8] | axonal loss (Bielschowsky's silver staining) [4, 9] | demyelination (luxol fast blue) [4, 9] | inhibition of 15-HC-induced secretion of NO, CCL-2 and TNF-α [6] | proliferative recall response of splenocytes (splenocytes; activation with MOG35-55 or antibodies to CD3) | profile of cytokine secretion of splenocytes (splenocytes; supernatants at 48 h, IFN-gamma, IL-17, IL-10, TGF-beta) | incubation time resulting in activation of PARP-1 (PARP-1 [2]; macrophages or microglia) | activation of the nuclear enzyme PARP-1 (PARP-1 [7])
1 | can be inhibited | could be inhibited | inhibition | decreased | could be blocked | Nc1cccc2c(=O)[nH]ccc12 [AIQ, 5-aminoisoquinolinone] | significant inhibition | little or no effect | significant decrease; also recorded: significantly reduced | significant decrease; also recorded: significantly reduced | could be inhibited | No statistical differences | no differences |  | 
2 |  |  |  |  |  | CC(C)CCC[C@@H](C)[C@H]1CC[C@H]2[C@@H]3C(=O)C=C4C[C@@H](O)CC[C@]4(C)[C@H]3CC[C@]12C [7-KC, 7-ketocholesterol, reference compound] |  |  |  |  |  |  |  | longer incubation times were required | activate
